The assay deals with T1, α-NAGA mutant (SEQ ID NO:8) (Homo sapiens, UniProt P17050, A191L/S188E).
T1 sequence (P17050 with tags, fused parts or gaps S188E/A191L): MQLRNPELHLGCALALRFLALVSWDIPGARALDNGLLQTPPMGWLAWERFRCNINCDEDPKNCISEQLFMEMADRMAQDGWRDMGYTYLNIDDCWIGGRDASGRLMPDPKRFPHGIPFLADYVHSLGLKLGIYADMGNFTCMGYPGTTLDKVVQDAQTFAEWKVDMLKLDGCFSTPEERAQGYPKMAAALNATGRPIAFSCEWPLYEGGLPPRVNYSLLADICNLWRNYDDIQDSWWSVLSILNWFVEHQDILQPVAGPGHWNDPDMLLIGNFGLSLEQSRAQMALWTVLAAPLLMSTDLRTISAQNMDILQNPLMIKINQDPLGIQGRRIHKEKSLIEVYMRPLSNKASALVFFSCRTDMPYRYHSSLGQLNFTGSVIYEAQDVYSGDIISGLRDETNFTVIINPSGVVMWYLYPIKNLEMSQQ
Briefly: Screening of inhibitor (1): remaining enzyme activity of α-NAGA mutant with 4-methylumbelliferyl α-D-galactopyranoside. The format is biochemical. As to conditions: 400 μM compound, pH 4.6, 37° C., 30 minutes. As for the experimental part:
The screening of inhibitor was carried out as follows: An inhibitor candidate compound dissolved in purified water or DMSO was added to 20 ng of an α-NAGA mutant (SEQ ID NO:8) and 4 mM 4-methylumbelliferylα-D-galactopyranoside dissolved in 0.1 M phosphate-citrate buffer (pH 4.6) such that a concentration of the inhibitor candidate compound became 0.8, 1, or 400 μM, and the mixture thus obtained was caused to react at 37° C. for 30 minutes (the total amount was 50 μl). After the reaction, 950 μl of 0.2 M glycine buffer (pH 10.7) was added to stop the reaction. Then, released 4-methylumbelliferone was measured at an excitation wavelength of 355 nm and at a fluorescence wavelength of 460 nm with use of Wallac 1420 ARVO MX Multilabel Counter. Remaining enzyme activity was calculated based on the assumption that an enzyme activity value obtained in a case where purified water or DMSO is added instead of the inhibitor candidate compound is 100%.

`OCC1NCC(O)C(O)C1O` [DGJ, (2R,3S,4R,5S)-2-(hydroxymethyl)piperdine-3,4,5-triol]: the “inhibition effect on α-NAGA mutant (remaining enzyme activity)” value is on record as “the inhibition effect was seen”.

The values above are taken from US20200115698A1, “PHARMACEUTICAL COMBINATION FOR TREATMENT OF FABRY DISEASE AND USE THEREOF” (MEIJI PHARMACEUTICAL UNIVERSITY, priority 2017, published 2020).
